System: membrane potential of mitochondria
Details: in the presence of molecular hydrogen

[HH] [hydrogen]
signal of TMRE (membrane potential) reduced: about 10%
